Assay results as given in US20130150350A1, “Derivatives of 1-Phenyl-1,5-Dihydro-Benzo[B] [1,4]Diazepine-2,4-Dione as Inhibitors of HIV Replication” (BOEHRINGER INGELHEIM INTERNATIONAL GMBH, priority 2010, published 2013).
Like-named read-outs stand apart in the source and are kept apart here.

Columns and labels:
[1] = system: HIV-1 replication in C8166 LTRluc cells; test: C8166 HIV-1 luciferase assay; assay type: cell-based; conditions: Human immunodeficiency virus 1, 72 h, inhibition of HIV-1 replication, moi 0.005, 3 days
Method: The assay used to measure inhibition of HIV replication is as described in WO 2004/050643, pages 73-75, herein incorporated by reference, with the following modifications:
Serial dilutions of HIV-1 inhibitors are prepared in complete media from DMSO stock solutions. Eleven serial dilutions of desired concentration are prepared in a 1 mL deep well titer plate (96 wells). The 12th well contains complete media with no inhibitor and serves as the positive control. All samples contain the same concentration of DMSO 0.1% DMSO). Inhibitor is added, to triplicate wells, of a 96 well tissue culture treated clear view black microtiter plate (Corning Costar catalogue #3904). The total volume per well is 200 μL of media containing the cells and inhibitor. The last row is reserved for uninfected C8166 LTRluc cells to serve as the background blank control and the first row is media alone.
Count C8166 LTRluc cells and place in a minimal volume of complete RPMI 1640 in a tissue culture flask (ex. 30×10^6 cells in 10 mL media/25 cm^2 flask). Infect cells with HIV-1 at a moi of 0.005. Incubate cells for 1.5 hours at 37° C. on a rotating rack in a 5% CO2 incubator. Resuspend cells in complete RPMI to give a final concentration of 25,000-cells/well. Add cells to wells of 96 well microtiter plate containing inhibitors. Add 25,000 uninfected C8166—LTRluc cells/well in 200 μL complete RPMI to last row for background control. Incubate cells at 37° C. in 5% CO2 incubator for 3 days.

[2] = target: T1, HIV-1NL4-3 CA-NC protein (SEQ ID NO: 2) (Human immunodeficiency virus type 1 group M subtype B, UniProt P12493, G226D); test: Immobilized capsid assembly assay (CAA); assay type: biochemical
T1 construct: HIV-1NL4-3 CA-NC, Gag residues 133-432; initiator Met (start codon introduced by PCR primer) (N); made in house; host or cells: E. coli BL21(DE3), pET-11a
Source text: (§1) SEQ ID NO: 1 is a nucleic acid of 900 base pairs encoding HIV-1NL4-3 CA-NC, Gag residues 133-432, having the CA G94D mutation (SEQ ID NO: 2). SEQ ID NO: 1, is transferred to pET-11a expression vector (Novagen™) by PCR amplification using primers that introduce an NdeI site and a start codon at the 5′-end and a BamHI site and a stop codon at the 3′-end. Resistance mutations in CA were identified by passage of the HIV-1 virus in the presence of compounds of the invention, namely V27A/I, K30R, S33G, V36T, T58I, G61E, G208A/R, E213G, K30R/T58I, K30R/G208R, V36T/G208R, S33G/T58I, S33G/G208R and T58I/G208R, all numbered with reference to SEQ ID NO: 2,. These resistance mutations may be introduced in the expression vector using the QuikChange® II Site-Directed Mutagenesis Kit (Stratagene) according to the manufacturer's instructions. SEQ ID NOS: 2 is expressed in the BL21(DE3) E. coli cells (Novagen™). Briefly, LB media is inoculated with overnight pre-cultures and grown at 37° C. until mid log-phase (Abs600 ˜0.6), protein expression is induced by addition of 0.5-1 mM isopropyl-β,D-thiogalactopyranoside (IPTG) and carried out for 4 to 6 hours at 30° C. Cells are harvested by centrifugation and pellets are stored at −80° C. until purification.
(§2) Purification of CA-NC (SEQ ID NO: 2) is as follows: 5 to 10 g of cell paste are lysed by sonication in 40 ml of Buffer A [20 mM Tris pH 7.5; 1 μM ZnCl2; 10 mM β-mercaptoethanol] supplemented with 0.5M NaCl and Complete EDTA-free® protease inhibitors tablets (Roche). Nucleic acids and cell debris are removed by adding 0.11 volumes of 0.2 M ammonium sulfate and an equivalent volume of 10% poly-(ethyleneimine) pH 8.0, stirring the sample for 20 minutes at 4° C., followed by centrifugation at 30 000×g for 20 minutes. SEQ ID NO: 2 is recovered from the supernatant by adding 0.35 volumes of saturated ammonium sulfate solution followed by centrifugation at 10 000×g for 15 minutes. The pellet is dissolved in 10 ml of Buffer A+0.1 M NaCl and dialyzed overnight in the same buffer but at 0.05 M NaCl (Dialysis Buffer). The sample is then cleared by centrifugation and passed on a 1-ml HiTrapTMSP HP column (GE Healthcare) pre-equilibrated with Dialysis Buffer. SEQ ID NO: 2 is eluted with Buffer A+0.5 M NaCl, fractions containing the protein are pooled; concentration determination is done by Abs280 using the calculated molar extinction coefficient (E=40220 M-1 cm-1).
Reacti-Bind Neutravidin Coated black 384-well plates (Pierce Cat#15402) are washed with 80 μl/well of Buffer A (50 mM Tris pH 8.0; 350 mM NaCl; 10 μM ZnSO4; 0.0025% CHAPS (w/v); 50 μg/ml bovine serum albumin (BSA); 1 mM DTT). Immobilization of a 5′-end biotin labeled (TG)25 oligonucleotide (Integrated DNA Technology Inc.) is carried out by adding 50 μl/well of a 25 nM solution of oligonucleotide in Buffer A+5 mg/ml of BSA (Sigma™) and incubating overnight. Unbound material is removed by two 80 μl/well washes with Buffer A. Assembly reactions are performed in 60 μl/well reactions comprising test compound, 100 nM of 5′-end fluorescein labeled (TG)25 oligonucleotide (Integrated DNA Technology Inc.) and 2 μM of CA-NC protein (SEQ ID NO: 2), using Buffer A+1% DMSO. Assembly reactions are incubated for 2 hours at room temperature and non-immobilized material is removed by two successive 80 μl/well washes with Buffer A. Finally, 80 μl/well of Buffer A+0.1% sodium dodecyl sulfate (SDS) is added and incubated for 15 minutes prior to quantification of captured fluorescence on a Victor2 plate reader (PerkinElmer Life Sciences) equipped with fluorescein excitation and emission filters using the standard manufacturer's settings for fluorescein fluorescence. The amount of captured fluorescence is considered to be proportional to the level of assembly. The IC50 values for each compound are generated by fitting inhibition curves from ten-point dilution series to the following equation: […]

[3] = target: T2, assembled HIV-1 capsid complexes (CA-NC protein, SEQ ID NO: 2) (Human immunodeficiency virus type 1 group M subtype B, UniProt P12493, G226D); test: Capsid disassembly assay (CDA); assay type: biochemical
T2 construct: HIV-1NL4-3 CA-NC, Gag residues 133-432; initiator Met (start codon introduced by PCR primer) (N); made in house; host or cells: E. coli BL21(DE3), pET-11a
Source text: The GAG polyprotein is the major structural protein required for HIV viral particle assembly. During the maturation process, Gag is cleaved by the viral protease and releases its four major proteins, matrix (MA), capsid (CA), nucleocapside (NC) and p6, as well as two spacer peptides termed SP1 and SP2. This triggers profound morphological changes to the viral particle as CA will reassemble to form the viral core, a structure that is essential for viral infectivity.
as §1, §2
Reacti-Bind Neutravidin Coated black 384-well plates (Pierce Cat#15402) are washed with 80 μl/well of Buffer A (50 mM Tris pH 8.0; 350 mM NaCl; 10 μM ZnSO4; 0.0025% CHAPS (w/v); 50 μg/ml BSA; 1 mM DTT). Immobilization of a 5′-end biotin labeled (TG)25 oligonucleotide (Integrated DNA Technology Inc.) is carried out by adding 50 μl/well of a 25 nM solution of oligonucleotide in Buffer A+5 mg/ml BSA and incubating overnight. Unbound material is removed by two 80 μl/well washes with Buffer A. Assembly reactions are performed in 60 μl/well reactions comprising 100 nM of 5′-end fluorescein labeled (TG)25 oligonucleotide (Integrated DNA Technology Inc.) and 2 μM of CA-NC protein (SEQ ID NO: 2), using Buffer A. Assembly reactions are incubated for 2 hours at room temperature and non-immobilized material is removed by washing 80 μl/well with Buffer A. Test compounds, serially diluted in Buffer A+0.125% dimethyl sulfoxide (DMSO), are added to the wells (60 μl/well) and incubated at room temperature for 2 hours. […]

[4] = concentration for 50% inhibition of capsid assembly, 2 μM CA-NC, 2 hours at room temperature, read-out: IC50 (μM) CAA
[5] = concentration for 50% disassembly of assembled complexes, 2 hours at room temperature, read-out: IC50 (μM) CDA

SMILES	EC50 [1] [nM]	IC50 [2, 4] [µM]	IC50 [3, 5] [µM]	IC50 [2] [µM]	IC50 [3] [µM]
CCN1C(=O)N(c2ccc(O)c(-c3cccnc3)c2)C(=O)N(c2ccccc2)c2cc(C(F)(F)F)ccc21 [Compound 3014]	200	0.31	0.14	–	–
CCN1C(=O)N(c2ccc(C(=O)NC[C@@H]3CCCN3CC)cc2)C(=O)N(c2ccccc2)c2cc(C(F)(F)F)ccc21 [Compound 3055]	400	–	0.13	–	–
CN1c2ccc(Cl)cc2N(c2ccccc2)C(=O)c2c[nH]nc21 [Compound 4007]	7800	0.31	–	–	–
CN1c2ccc(C(F)(F)F)cc2N(c2ccccc2)C(=O)c2c1ncn2C [Compound 5003]	5500	0.26	–	–	–
CCN1C(=O)C(c2ccc(CN3CCNCC3)cc2)C(=O)N(c2ccccc2)c2cc(C(F)(F)F)ccc21 (centres unmarked) [Compound 2018]	800	–	–	0.52	0.28
CCN1C(=O)N(c2ccccc2)C(=O)N(c2ccccc2)c2cc(C(F)(F)F)ccc21 [Compound 3011]	600	0.63	0.18	–	–
CCN1C(=O)C2(CCc3c2ccc(-c2cncnc2)c3OC)C(=O)N(c2ccccc2)c2cc(C(F)(F)F)ccc21 (centres unmarked) [Compound 7030]	600	–	–	–	0.17
CCN1C(=O)C2(CCc3ccccc32)C(=O)N(c2ccccc2)c2cc(C(F)(F)F)ccc21 (racemic) [Compound 7001]	1500	–	–	0.73	0.46
COCCN/C=C1/C(=O)N(C)c2ccc(C(F)(F)F)cc2N(c2ccccc2)C1=O [Compound 1011]	12000	–	–	0.89	0.86
CCN1C(=O)C2(C=C(C)c3cc(O)ccc32)C(=O)N(c2ccccc2)c2cc(C(F)(F)F)ccc21 (centres unmarked) [Compound 7037]	1000	–	–	–	0.3
CCN1C(=O)N(c2ccc(C(=O)O)cc2)C(=O)N(c2ccccc2)c2cc(C(F)(F)F)ccc21 [Compound 3034]	2600	–	0.27	–	–
CCN1c2ccc(Cl)cc2N(c2ccccc2)C(=O)c2c1ncn2C [Compound 5001]	1500	0.36	–	–	–
CN1c2ccc(Cl)cc2N(c2ccccc2)C(=O)c2cn(C)nc21 [Compound 4002]	6900	0.71	–	–	–
CCN1C(=O)/C(=C/NCCOC)C(=O)N(c2ccccc2)c2cc(Cl)ccc21 [Compound 1004]	12700	0.47	0.38	–	–
CN1c2ccc(Cl)cc2N(c2ccccc2)C(=O)c2cn(Cc3ccncc3)nc21 [Compound 4032]	300	0.55	–	–	–
CCN1C(=O)C2(CCc3cc(-c4ccnn4C)ccc32)C(=O)N(c2ccccc2)c2cc(C(F)(F)F)ccc21 (centres unmarked) [Compound 7012]	200	–	–	–	0.2
CCN1C(=O)C(c2cccc(-c3cccnc3)c2O)C(=O)N(c2ccccc2)c2cc(C(F)(F)F)ccc21 (centres unmarked) [Compound 2035]	5800	–	–	1.28	–
CCN1C(=O)C(c2ccc(-c3cccnc3)cc2)C(=O)N(c2ccccc2)c2cc(C(F)(F)F)ccc21 (centres unmarked) [Compound 2030]	400	–	–	0.39	0.32
CN1c2cccc(F)c2N(c2ccccc2)C(=O)c2c1ncn2C [Compound 5005]	400	0.32	–	–	–
CCN1C(=O)N(c2ccc(CO)cc2)C(=O)N(c2ccccc2)c2cc(C(F)(F)F)ccc21 [Compound 3027]	700	–	0.1	–	–
COCCNCc1ccc(Cn2cnc3c2C(=O)N(c2ccccc2)c2cc(Cl)ccc2N3C)cc1 [Compound 5026]	900	0.17	–	–	–
CN1c2ccc(Cl)cc2N(c2ccccc2)C(=O)c2scnc21 [Compound 6001]	8100	1	–	–	–
CCN1C(=O)C(c2cccnc2)C(=O)N(c2ccccc2)c2cc(C(F)(F)F)ccc21 (centres unmarked) [Compound 2076]	4100	–	–	1.6	–
